From patent publication US20250281629A1, “COMPOSITIONS AND METHODS FOR ANTI-PHOSPHOCHOLINE ACTIVE IMMUNOTHERAPY” (Duke University, priority 2022, published 2025)
Where no end group is shown, it is not given here.

Columns and labels:
Format in all cases: in vivo, mouse
C57BL/6 mice [1] = assay: One cycle acute DSS-induced colitis, female and male mice
Source text: (§1) DSS-Induced Colitis and Assessment. Before inducing colitis, mice from each treatment group were divided amongst the cages to avoid any cage-related disease effects. This excluded the PBS without DSS (healthy) control mice which remained in their own cage and received normal drinking water for the duration of the experiment. Colitis was induced by administering 2% (w/v) colitis-grade dextran sodium sulfate (MP Biomedicals, 160110) in drinking water. For determination of prophylactic immunization efficacy, mice were immunized i.p. 3 times at days −35, −21 and −7 before colitis induction on Day 0. Chronic colitis was induced via DSS-containing water given for 5 days followed by 5 days of normal drinking water for 3 cycles, resulting in a 30-day model. A shorter, acute DSS-induced colitis model consisting of one cycle of colitis was achieved by giving 5 days of 2% DSS in water followed by 5 days of normal drinking water for a total of 10 days and was also examined in a preventative immunization scenario. Mice were weighed daily and evaluated for the IACUC approved humane endpoint of >30% weight loss as DSS mice regain weight quickly after DSS administration ceases. They were also monitored for occult blood with Hemoccult tape and developer (Beckman Coulter, 63202) and fecal consistency. Disease activity index (DAI) scores were a combination of weight loss (≥100%=0, 90-99%=1, 80-89%=2, […]), occult blood (no blood=0, blood=3), and fecal consistency (hard=0, soft=1, softer=2, runny=3), with a possible daily maximum score of 9. […] At the experimental endpoint, mice were euthanized, and colon lengths were measured from the base of the cecum to the rectum using digital calibrators. To determine immunization efficacy in a therapeutic colitis setting, colitis was first induced by administering one cycle of colitis achieved by 5 days of 2% DSS in water followed by 5 days of normal drinking water for a total of 10 days. Mice were monitored daily as described above until they on average regained their original body weight on day 20. At this point, i.p. immunizations were initiated and given three times over a 4-week period on days 20, 32, and 45, and colitis monitoring was reduced to twice weekly. An additional cycle of colitis was then induced on day 51 via 5 days of 2% DSS in water followed by 5 days of normal drinking water for a total of 10 days with daily monitoring. The entire therapeutic model ended on day 60, and colon lengths were measured as described above.
(§2) Spleen Bacteria Measurements. At the conclusion of the DSS experiments, spleens were harvested and weighed followed by homogenization in 500 μL of 0.1% Triton X-100 in sterile 1×PBS using a Tissue Tearer handheld homogenizer (Biospec Products). 25 μL of homogenate solution was then spread on each quarter of culture plates consisting of tryptic soy broth No. 2 (Sigma, 51228) and Difco agar, granulated (BD Biosciences, 214530) in dilutions from 100 to 103. After a 48 hr incubation at 37° C., colony forming units (CFUs) were counted and converted to CFU/g of spleen tissue via the equations: […]
Colon IL-10 Quantification. At the conclusion of some DSS experiments, one half of the harvested mouse colons were flushed with PBS to remove fecal matter and flash frozen in liquid nitrogen. Later, colons were thawed on ice, weighed, and homogenized in 2 μL/mg of Tissue Extraction Reagent I (Thermo Fisher, FNN0071) with a protease inhibitor tablet (Thermo Fisher, A32955) using a Navy Bead Lysis Kit (Next Advance, NAVYE1). The amount of IL-10 in colon homogenate supernatants was then measured using an IL-10 mouse ELISA kit (Invitrogen, 88-7105-22) in accordance with the manufacturer's protocol.

occludin = assay: Immunofluorescence of colon tight junction protein occludin; settings: week 5; vs PBS control mice
Procedure: Immunofluorescence Imaging and Analysis. Immunofluorescence was conducted on sections from proximal colon samples frozen in OCT and sectioned. Slides were first thawed and outlined with a hydrophobic pen (ImmEdge Hydrophobic Barrier PAP Pen, Vector Labs, H-4000) then fixed with 4% paraformaldehyde for 10 min at room temperature. The slides were washed three times with wash buffer (1×PBS+100 mM CaCl2+100 mM MgCl) for 10 min at room temperature then incubated in a blocking solution containing 0.3% Triton X-100 and 10% normal donkey serum in 1×PBS+100 mM CaCl2+100 mM MgCl for 1 h at room temperature. The slides were then incubated in the primary antibodies (rat anti-ZO-1, clone R40.70, Fisher Scientific, MABT11; rabbit anti-occludin, clone EPR20992, Abcam, ab216327) diluted 1:100 in the blocking solution overnight at 4° C. The slides were washed three times with wash buffer for 10 min at room temperature. They were then incubated in the secondary antibodies (donkey anti-rat Alexa Fluor™ 568, Thermo Fisher, A78946; donkey anti-rabbit Alexa Fluor™ 647, Thermo Fisher, A31573) and nuclear marker DAPI diluted 1:500 in the blocking solution for 2 h at room temperature. […] The intensities of each marker were quantified using ImageJ and expressed as the integrated density of the fluorescent signal normalized to the area fraction of DAPI positive pixels. […]

C57BL/6 mice [2] = assay: Chronic DSS-induced colitis, prophylactic immunization
Source text: as §1
FITC-dextran Measurements. On the last day of the chronic and therapeutic DSS colitis models, mice were fasted overnight and then given 0.6 mg/g 3-5 KDa m.w. FITC-dextran (Sigma, FD4) in 100 μL of sterile 1×PBS via oral gavage. Serum samples were collected 3 h later at the experimental endpoint. To determine the intestinal barrier permeability, serum samples were diluted in 1×PBS and FITC fluorescence intensity was measured at an excitation of 488 nm and emission of 520 nm. Values were converted to pg/mL via a standard curve of FITC-dextran in serum.
as §2
Colon IL-10 Quantification. At the conclusion of some DSS experiments, one half of the harvested mouse colons were flushed with PBS to remove fecal matter and flash frozen in liquid nitrogen. […]

[3] = 2% DSS, 3 cycles, 30 days, vs disease controls

## (C11H22NO6P)n-CCCCSGSG-QQKFQFQFEQQ-NH2 (CCCCSGSGQQKFQFQFEQQ-NH2; not fully specified; cysteine pairing not given here; also: phosphorylcholine groups (C11H22NO6P) n=1-4, attachment not placed) [PCM-Q11, linear multi-PC conjugate]
C57BL/6 mice [1]; both sexes, vs CpG-immunized mice and DSS disease controls
  colon lengths: increased colon lengths
C57BL/6 mice [1]; female
  serum anti-PC IgM, female mice: undetectable
  spleen colony forming units (CFUs), female mice: dramatically decreased spleen colony forming units (CFUs)
C57BL/6 mice [1]; male
  colon IL-10 levels, male mice: not significantly reduced compared to healthy controls
  serum anti-PC IgM, male mice: significantly less anti-PC IgM than PCM-Q11/CpG
  spleen CFUs / bacterial spread, male mice: This trend was also present, though not statistically significant
C57BL/6 mice [1]; one cycle 2% DSS, 10 days, female
  protective efficacy / disease metrics, female mice: significant protective efficacy
C57BL/6 mice [1]; one cycle 2% DSS, male
  weight loss and disease activity index scores, male mice: improved weight loss and disease activity index scores
occludin
  occludin levels in colon after immunization: not significantly different
C57BL/6 mice [2]; [3]
  disease activity index (DAI) scores / disease severity: improved disease severity
  weight loss: reduced weight loss
C57BL/6 mice [2]; before DSS administration
  serum anti-PC IgG subclass responses at week 5: skewed the subclass response towards non-inflammatory IgG1 with IgG2b also present
C57BL/6 mice [2]; chronic colitis experiment 1
  IL-10 levels in colon homogenates: highest levels that were not significantly different from healthy controls
C57BL/6 mice [2]; day 30, vs disease controls
  colon length (colon shortening): diminished colon shortening
C57BL/6 mice [2]; i.p. days −35, −21, −7, without CpG
  serum anti-PC IgM: did not induce anti-PC IgM within detection levels
